The values below come from ChEMBL document CHEMBL2073979, “Molecular cloning and characterization of a new multispecific organic anion transporter from rat brain” (J Biol Chem, 1999).

In series [1] the target is T1, Organic anion transporter 3 (Rattus norvegicus, UniProt Q9R1U7).
T1 sequence (Q9R1U7 whole entry): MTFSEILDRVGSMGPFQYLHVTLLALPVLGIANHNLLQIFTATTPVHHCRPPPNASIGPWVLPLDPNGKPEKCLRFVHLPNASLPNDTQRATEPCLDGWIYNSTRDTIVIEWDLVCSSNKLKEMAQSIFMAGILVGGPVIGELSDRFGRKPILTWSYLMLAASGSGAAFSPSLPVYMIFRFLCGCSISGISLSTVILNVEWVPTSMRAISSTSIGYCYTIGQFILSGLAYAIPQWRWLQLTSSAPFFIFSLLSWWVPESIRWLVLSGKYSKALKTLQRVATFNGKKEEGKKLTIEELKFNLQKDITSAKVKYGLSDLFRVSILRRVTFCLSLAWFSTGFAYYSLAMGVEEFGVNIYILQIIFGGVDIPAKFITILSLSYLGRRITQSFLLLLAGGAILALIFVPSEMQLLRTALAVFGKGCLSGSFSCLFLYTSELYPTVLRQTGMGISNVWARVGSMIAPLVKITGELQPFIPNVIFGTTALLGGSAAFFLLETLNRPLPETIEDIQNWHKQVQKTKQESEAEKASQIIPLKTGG
Nature of the series: TP_TRANSPORTER: inhibition of E1S uptake (E1S: 40 uM, MTX: 1000 uM) in Xenopus laevis oocytes. The class given is functional, cell-based. As to conditions: oocyte.

In series [2] the target is T1, Organic anion transporter 3. Nature of the series: TP_TRANSPORTER: inhibition of E1S uptake (E1S: 40 uM, Cefoperazone: 1000 uM) in Xenopus laevis oocytes. In kind it is functional, cell-based. As to conditions: oocyte.
For series [3] the target is unchanged. Nature of the series: TP_TRANSPORTER: inhibition of E1S uptake (E1S: 40 uM, Probenecid: 1000 uM) in Xenopus laevis oocytes. The class given is functional, cell-based. The following applies: oocyte.
The target is the same in series [4]. The series can be described thus: TP_TRANSPORTER: inhibition of E1S uptake (E1S: 40 uM, BSP: 1000 uM) in Xenopus laevis oocytes. The class given is functional, cell-based. As to conditions: oocyte.
Series [5] has the same target. The series can be described thus: TP_TRANSPORTER: inhibition of E1S uptake (E1S: 40 uM, Indomethacin: 1000 uM) in Xenopus laevis oocytes. The following applies: oocyte. The class given is functional, cell-based.
The target is the same in series [6]. Nature of the series: TP_TRANSPORTER: inhibition of E1S uptake (E1S: 40 uM, DIDS: 1000 uM) in Xenopus laevis oocytes. In kind it is functional, cell-based. As to conditions: oocyte.
The target is the same in series [7]. The series can be described thus: TP_TRANSPORTER: inhibition of E1S uptake (E1S: 40 uM, ICG: 1000 uM) in Xenopus laevis oocytes. The class given is functional, cell-based. As to conditions: oocyte.
The target is the same in series [8]. Nature of the series: TP_TRANSPORTER: inhibition of E1S uptake (E1S: 40 uM, Malatonin: 1000 uM) in Xenopus laevis oocytes. The following applies: oocyte. In kind it is functional, cell-based.
The target is the same in series [9]. The series can be described thus: TP_TRANSPORTER: inhibition of E1S uptake (E1S: 40 uM, AZT: 1000 uM) in Xenopus laevis oocytes. The class given is functional, cell-based. As to conditions: oocyte.
The target is the same in series [10]. Nature of the series: TP_TRANSPORTER: inhibition of E1S uptake (E1S: 40 uM, Furosemide: 1000 uM) in Xenopus laevis oocytes. In kind it is functional, cell-based. The following applies: oocyte.
Series [11] addresses T2, Organic anion transporter 3 (OAT3) (Rattus norvegicus, UniProt Q9R1U7).
T2 sequence (Q9R1U7 whole entry): T1 sequence (Q9R1U7 whole entry)
Nature of the series: (§1) TP_TRANSPORTER: uptake in Xenopus laevis oocytes. The class given is functional, cell-based, Oocyte.

For series [12], the target named is T1, Organic anion transporter 3. The series can be described thus: TP_TRANSPORTER: inhibition of E1S uptake (E1S: 40 uM, Ouabain: 1000 uM) in Xenopus laevis oocytes. In kind it is functional, cell-based. The following applies: oocyte.
The target is the same in series [13]. The series is described as §1. In kind it is functional, cell-based, Oocyte. The following applies: oocyte.
Series [14] shares this target. Nature of the series: TP_TRANSPORTER: inhibition of E1S uptake (E1S: 40 uM, Bumetanide: 1000 uM) in Xenopus laevis oocytes. The class given is functional, cell-based. The following applies: oocyte.
For series [15] the target is unchanged. Nature of the series: TP_TRANSPORTER: inhibition of E1S uptake (E1S: 40 uM, Piroxicam: 1000 uM) in Xenopus laevis oocytes. In kind it is functional, cell-based. As to conditions: oocyte.
Substrate in series [16]: Nc1ccc(C(=O)NCC(=O)O)cc1
The description is as §1. In kind it is functional, cell-based, Oocyte.

Substrate in series [17]: C[C@]12CC[C@@H]3c4ccc(OS(=O)(=O)O)cc4CC[C@H]3[C@@H]1CCC2=O
The series is described as §1. The class given is functional, cell-based, Oocyte.

Turning to `CN(Cc1cnc2nc(N)nc(N)c2n1)c1ccc(C(=O)N[C@@H](CCC(=O)O)C(=O)O)cc1` [METHOTREXATE], the Activity result in [1] is “inhibitor [(at a rough estimate) 35 % of control]”.

As for `CCN1CCN(C(=O)N[C@@H](C(=O)N[C@@H]2C(=O)N3C(C(=O)O)=C(CSc4nnnn4C)CS[C@H]23)c2ccc(O)cc2)C(=O)C1=O` [CEFOPERAZONE], in series [2], the Activity entry is “inhibitor [(at a rough estimate) 40 % of control]”.

Turning to `CCCN(CCC)S(=O)(=O)c1ccc(C(=O)O)cc1` [PROBENECID], the Activity entry in [3] was “inhibitor [(at a rough estimate) 15 % of control]”.

In the case of `O=C1OC(c2ccc(O)c(S(=O)(=O)[O-])c2)(c2ccc(O)c(S(=O)(=O)[O-])c2)c2c(Br)c(Br)c(Br)c(Br)c21.[Na+].[Na+]` [SULFOBROMOPHTHALEIN SODIUM], in series [4], the Activity result was “inhibitor [(at a rough estimate) 5 % of control]”.

With `COc1ccc2c(c1)c(CC(=O)O)c(C)n2C(=O)c1ccc(Cl)cc1` [INDOMETHACIN], the Activity entry in series [5] was “is not an inhibitor [-]”.

With `O=S(=O)(O)c1cc(N=C=S)ccc1/C=C/c1ccc(NC=S)cc1S(=O)(=O)O`, the Activity entry in series [6] is “inhibitor [(at a rough estimate) 10 % of control]”.

As for `CC1(C)C(/C=C/C=C/C=C/C=C2/N(CCCCS(=O)(=O)[O-])c3ccc4ccccc4c3C2(C)C)=[N+](CCCCS(=O)(=O)[O-])c2ccc3ccccc3c21.[Na+]` [INDOCYANINE GREEN], in series [7], the Activity result was “inhibitor [(at a rough estimate) 20 % of control]”.

For `COc1ccc2[nH]cc(CCNC(C)=O)c2c1` [MELATONIN], the Activity result in series [8] was “inhibitor [(at a rough estimate) 10 % of control]”.

For `Cc1cn([C@H]2C[C@H](N=[N+]=[N-])[C@@H](CO)O2)c(=O)[nH]c1=O` [ZIDOVUDINE], the Activity result in [9] was “inhibitor [(at a rough estimate) 20 % of control]”.

On to `NS(=O)(=O)c1cc(C(=O)O)c(NCc2ccco2)cc1Cl` [FUROSEMIDE], for which, in series [10], the Activity entry is “inhibitor [(at a rough estimate) 10 % of control]”.

In general, Km refers to the concentration of substrate that gives half-maximal velocity. As to `C[C@@H]1Cc2c(Cl)cc(C(=O)N[C@@H](Cc3ccccc3)C(=O)O)c(O)c2C(=O)O1` [3R14S-OCHRATOXIN A], the Michaelis-Menten constant (Km) in [11] is 739 nM.

`C[C@@H]1O[C@@H](O[C@H]2C[C@@H](O)[C@]3(CO)[C@H]4[C@H](O)C[C@]5(C)[C@@H](C6=CC(=O)OC6)CC[C@]5(O)[C@@H]4CC[C@]3(O)C2)[C@H](O)[C@H](O)[C@H]1O` [OUABAIN]: in series [12], the Activity entry is “is not an inhibitor [-]”.

`CN/C(=N/CCSCc1nc[nH]c1C)NC#N` [CIMETIDINE]: in series [13], the Activity entry was “substrate [+]”.

In the case of `CCCCNc1cc(C(=O)O)cc(S(N)(=O)=O)c1Oc1ccccc1` [BUMETANIDE], the Activity entry in series [14] is “inhibitor [(at a rough estimate) 20 % of control]”.

Consider `CN1C(C(=O)Nc2ccccn2)=C(O)c2ccccc2S1(=O)=O` [PIROXICAM], for which, in [15], the Activity entry was “inhibitor [(at a rough estimate) 10 % of control]”.

B1: Organic anion transporter 3 (Rattus norvegicus) (protein)
chain: T1 sequence (Q9R1U7 whole entry)
As to B1, the Km was found to be 64.7 µM in [16] and 2.34 µM in series [17].
